Experimental data published in US9073954B2, “5-substituted benzimidazolium compounds” (Boehringer Ingelheim International GmbH, priority 2013, dated 2015).
Like-named read-outs stand apart in the source and are kept apart here.

Legend:
[1] = biological target: T1, ENaC (Epithelial Sodium Channel) (Mus musculus, UniProt Q61180+Q9WU38+Q9WU39); test: Ussing chamber: short circuit current in M-1 cells; type: cell-based
T1 construct: Mouse kidney M-1 cells were cultivated in DMEM; endogenous in cells; host or cells: mouse kidney M-1 cells
T1 sequence (Q61180 1-699): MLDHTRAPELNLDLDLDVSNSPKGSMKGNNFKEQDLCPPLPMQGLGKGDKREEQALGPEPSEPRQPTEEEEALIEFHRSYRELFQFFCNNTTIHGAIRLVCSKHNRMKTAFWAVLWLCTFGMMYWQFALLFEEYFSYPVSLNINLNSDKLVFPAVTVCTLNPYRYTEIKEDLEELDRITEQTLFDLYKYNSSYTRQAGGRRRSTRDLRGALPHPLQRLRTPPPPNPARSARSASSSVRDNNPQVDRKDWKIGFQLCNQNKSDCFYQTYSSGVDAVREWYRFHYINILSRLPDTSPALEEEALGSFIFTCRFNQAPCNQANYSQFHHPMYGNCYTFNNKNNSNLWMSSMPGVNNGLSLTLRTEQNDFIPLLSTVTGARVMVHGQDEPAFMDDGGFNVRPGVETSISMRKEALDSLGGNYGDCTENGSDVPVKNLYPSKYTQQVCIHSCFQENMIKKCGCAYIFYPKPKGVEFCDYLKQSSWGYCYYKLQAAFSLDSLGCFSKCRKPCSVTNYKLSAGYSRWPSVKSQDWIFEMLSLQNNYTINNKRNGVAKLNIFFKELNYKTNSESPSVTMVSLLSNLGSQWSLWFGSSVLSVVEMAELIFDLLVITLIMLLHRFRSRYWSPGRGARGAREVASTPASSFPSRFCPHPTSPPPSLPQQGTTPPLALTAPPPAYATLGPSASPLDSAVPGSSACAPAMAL
T1 sequence (Q9WU38 1-638): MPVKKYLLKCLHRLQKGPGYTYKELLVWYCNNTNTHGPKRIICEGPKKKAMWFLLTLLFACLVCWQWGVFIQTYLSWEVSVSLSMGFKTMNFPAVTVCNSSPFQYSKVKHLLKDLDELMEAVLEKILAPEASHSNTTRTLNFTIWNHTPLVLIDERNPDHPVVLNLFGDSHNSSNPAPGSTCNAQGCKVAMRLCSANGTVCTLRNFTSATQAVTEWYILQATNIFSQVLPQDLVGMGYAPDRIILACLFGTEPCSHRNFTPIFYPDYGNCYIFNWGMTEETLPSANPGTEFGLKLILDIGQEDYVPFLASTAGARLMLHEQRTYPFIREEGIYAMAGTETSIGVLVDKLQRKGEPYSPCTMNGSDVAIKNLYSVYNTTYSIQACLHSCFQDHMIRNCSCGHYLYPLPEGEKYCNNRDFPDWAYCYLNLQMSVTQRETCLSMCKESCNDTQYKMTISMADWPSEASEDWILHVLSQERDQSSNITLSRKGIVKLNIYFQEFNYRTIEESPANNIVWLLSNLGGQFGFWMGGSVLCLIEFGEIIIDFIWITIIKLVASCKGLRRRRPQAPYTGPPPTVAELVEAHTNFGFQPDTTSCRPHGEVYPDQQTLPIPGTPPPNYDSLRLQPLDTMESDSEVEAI
T1 sequence (Q9WU39 1-655): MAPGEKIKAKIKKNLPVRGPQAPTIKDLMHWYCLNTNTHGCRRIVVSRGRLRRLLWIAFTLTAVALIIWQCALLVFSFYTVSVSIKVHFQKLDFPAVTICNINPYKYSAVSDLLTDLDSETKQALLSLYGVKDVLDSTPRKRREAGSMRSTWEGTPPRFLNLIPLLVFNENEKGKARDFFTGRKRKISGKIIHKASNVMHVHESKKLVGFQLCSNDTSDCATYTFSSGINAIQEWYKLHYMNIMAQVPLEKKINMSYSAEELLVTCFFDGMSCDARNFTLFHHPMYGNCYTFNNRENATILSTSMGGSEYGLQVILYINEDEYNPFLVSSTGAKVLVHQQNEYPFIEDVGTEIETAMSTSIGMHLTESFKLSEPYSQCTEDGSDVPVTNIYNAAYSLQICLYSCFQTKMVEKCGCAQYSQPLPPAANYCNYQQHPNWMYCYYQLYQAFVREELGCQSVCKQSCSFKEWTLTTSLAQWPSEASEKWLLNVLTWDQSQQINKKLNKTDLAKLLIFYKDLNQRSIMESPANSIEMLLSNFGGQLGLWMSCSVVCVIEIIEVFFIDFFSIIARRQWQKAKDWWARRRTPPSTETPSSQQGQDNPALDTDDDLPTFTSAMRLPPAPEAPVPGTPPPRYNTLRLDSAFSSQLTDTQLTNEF
Procedure: Mouse kidney M-1 cells were cultivated in DMEM containing 5% FCS and 5 μM dexamethasone for 10 to 12 days on polyester transwell filters. Filters were inserted into a teflon-coated well-plate which fit into the ussing chamber system. Prior to measurement the medium of M-1 cells was replaced with Caco-2 transport buffer (Invitrogen, Germany). During measurements, the Ussing chamber temperature was kept at 37° C. Short circuit currents (I_sc) were measured in the voltage-clamp mode with the software package Lab View for data acquisition and analysis. The transepithelial electrical resistance (TEER) was determined by the application of voltage steps of ±5 mV every 5 sec. Compounds were administered at a final concentration of 3 μM or at increasing concentrations (1-3-10 μM) to the apical solution. At the end of each experiment the amiloride sensitive I_SC was measured by adding 3 μM amiloride to the apical compartment. Results are expressed as inhibition in percent of the amiloride effect or as IC50.
With the example compounds given above, the following IC50 values were determined in the Ussing Chamber assay: […]

[2] = Permeability in CALU-3 cells; type: in vitro ADME; conditions: human, CALU-3 monolayers, 10 μM compound, pH 7.4, 37° C.; for Papp A→B at 90 min, 10 μM: apical-to-basal; for Papp B→A at 90 min, 10 μM: basal-to-apical
Procedure: Permeability in CALU-3 Cells:
Permeability measurements across polarized, confluent CALU-3 cell monolayers grown on permeable filter supports are used to provide information on the potential of a compound to pass the lung epithelium. Apparent permeability coefficients (Papp) of the compounds across the CALU-3 cell monolayers are measured (pH 7.4, 37° C.) in apical-to-basal (AB) and basal-toapical (BA) transport direction.
CALU-3 cells (1-2×10^5 cells/1 cm^2 area) are seeded on filter inserts (Costar transwell polycarbonate filters, 0.4 μm pore size) and cultured (for 10-12 days DMEM) until tight monolayers are formed. Compounds of interest are dissolved in appropriate solvent (DMSO, 10 mM stock solution). Stock solutions are diluted with HTP-4 buffer (128.13 mM NaCl, 5.36 mM KC, 1 mM MgSO4, 1.8 mM CaCl2, 4.17 mM NaHCO3, 1.19 mM Na2HPO4×7H2O, 0.41 mM NaH2PO4xH2O, 15 mM HEPES, 20 mM glucose, 0.25% BSA, pH 7.4) to prepare the transport solutions (10 μM compound, final DMSO<=0.5%). The transport solution (TL) is applied to the apical or basolateral donor side for measuring A-B or B-A permeability (3 filter replicates), respectively. The receiver side contains the same buffer as the donor side. After 30 min of accommodation, samples are collected at the start t0=0 min and at the end of the experiment tn=90 min from the donor and at 0, 30, 60, and 90 min also from the receiver chamber. Volume removed is replenished by HTP-4 buffer. The compound concentration in the samples is measured by HPLC-MS/MS or scintillation counting. The permeability coefficient (Papp) and efflux ratio are calculated according to: Papp [cm/s]=(concentration receiver [nM]*volume receiver [mL]/time interval [sec])*(1/filter area)*(1/donor concentration [nM])
With example compounds given above, the following permeability values were determined in the CALU-3 cells assay: […]

[3] = Ussing chamber, mouse kidney M-1 cells, amiloride sensitive I_SC, apical application, 37° C., read-out: IC50

Compound | IC50 [1, 3] | further results
CCOP(=O)([O-])CCCOc1ccc2c(c1)n(CC)c(CNC(=O)c1nc(Cl)c(N)nc1N)[n+]2CCOC [Example 1.1] | 11 nM | Papp A→B at 90 min, 10 μM [2]: 0.1 ×10⁻⁶ cm/s; Papp B→A at 90 min, 10 μM [2]: 0.03 ×10⁻⁶ cm/s
CCn1c(CNC(=O)c2nc(Cl)c(N)nc2N)[n+](CC)c2ccc(CNC(=O)OCC3c4ccccc4-c4ccccc43)cc21 [Example 1.2] | 9 nM | 
CCn1c(CNC(=O)c2nc(Cl)c(N)nc2N)[n+](CC)c2cc(Cl)c(N(CCO)CCO)cc21 [Example 1.3] | 2 nM | 
CCn1c(CNC(=O)c2nc(Cl)c(N)nc2N)[n+](CC)c2ccc(OCCNC(=O)OC(C)(C)C)cc21 [Example 1.4] | 0.4 nM | 
CCn1c(CNC(=O)c2nc(Cl)c(N)nc2N)[n+](CC)c2cc(Cl)c(O[C@H]3CO[C@H]4[C@@H]3OC[C@@H]4O)cc21 [Example 1.5] | 1 nM | Papp A→B at 90 min, 10 μM [2]: 0.3 ×10⁻⁶ cm/s; Papp B→A at 90 min, 10 μM [2]: 0.1 ×10⁻⁶ cm/s
CCOP(=O)([O-])CCCOc1ccc2c(c1)n(CC)c(CNC(=O)c1nc(Br)c(N)nc1N)[n+]2CCOC [Example 2.1] | 16 nM | Papp A→B at 90 min, 10 μM [2]: 0.2 ×10⁻⁶ cm/s; Papp B→A at 90 min, 10 μM [2]: 0.08 ×10⁻⁶ cm/s
CCOP(=O)(CCCOc1ccc2c(c1)n(CC)c(CNC(=O)c1nc(Cl)c(N)nc1N)[n+]2CC)OCC [Example 3.1] | 3 nM | 
CCn1c(CNC(=O)c2nc(Cl)c(N)nc2N)[n+](CC)c2cc(Cl)c(OCCOCCOC)cc21 [Example 3.2] | 0.5 nM | 
CCn1c(CNC(=O)c2nc(Cl)c(N)nc2N)[n+](CC)c2ccc(O[C@H](C)C(=O)N3CCNC(=O)C3)cc21 [Example 3.3] | 1 nM | 
CCNC(=O)COc1ccc2c(c1)n(C(C)C)c(CNC(=O)c1nc(Cl)c(N)nc1N)[n+]2CC [Example 3.4] | 1 nM | 
CC[n+]1c(CNC(=O)c2nc(Cl)c(N)nc2N)n(CCCCCO)c2cc(O)ccc21 [Example 3.7] |  | Papp A→B at 90 min, 10 μM [2]: 0.7 ×10⁻⁶ cm/s; Papp B→A at 90 min, 10 μM [2]: 0.3 ×10⁻⁶ cm/s
CCOP(=O)(CCCOc1ccc2c(c1)n(CC)c(CNC(=O)c1nc(Cl)c(N)nc1N)[n+]2CCOC)OCC [Example 3.13] |  | IC50 [1]: 2 nM
CCn1c(CNC(=O)c2nc(Cl)c(N)nc2N)[n+](CC)c2ccc(O[C@@H]3CO[C@H]4[C@@H]3OC[C@H]4O)cc21 [Example 3.15] | 3 nM | 
CCNC(=O)c1cc2c(cc1OCC(=O)N1CCNCC1)n(CC)c(CNC(=O)c1nc(Cl)c(N)nc1N)[n+]2CC [Example 6.3] | 4 nM | 
CCn1c(CNC(=O)c2nc(Cl)c(N)nc2N)[n+](CC)c2ccc(OCCNC(=O)C[N+](C)(C)C)cc21 [Example 8.1] | 0.4 nM | 
CCn1c(CNC(=O)c2nc(Cl)c(N)nc2N)[n+](CC)c2ccc(OCCNCC(=O)OC)cc21 [Example 9.1] | 2 nM | 
CCn1c(CNC(=O)c2nc(Cl)c(N)nc2N)[n+](CC)c2ccc(CNC(=O)COc3cc(C(=O)N[C@H]4CC[C@H](N(C)C)CC4)cc(C(=O)N[C@H]4CC[C@H](N(C)C)CC4)c3)cc21 [Example 11.1] | 2 nM | 

Further lines, with some results ahead:

IC50 [1, 3] | Compound | further results
2 nM | CCn1c(CNC(=O)c2nc(Cl)c(N)nc2N)[n+](C[C@H](C)O)c2cc(OCCN)ccc21 [Example 1.7] | Papp A→B at 90 min, 10 μM [2]: 0.03 ×10⁻⁶ cm/s; Papp B→A at 90 min, 10 μM [2]: 0.05 ×10⁻⁶ cm/s
0.5 nM | CCNC(=O)[C@@H](C)Oc1ccc2c(c1)n(CC)c(CNC(=O)c1nc(Cl)c(N)nc1N)[n+]2CC [Example 3.5] | Papp A→B at 90 min, 10 μM [2]: 1 ×10⁻⁶ cm/s; Papp B→A at 90 min, 10 μM [2]: 0.4 ×10⁻⁶ cm/s
1 nM | CCNC(=O)[C@H](C)Oc1ccc2c(c1)n(CC)c(CNC(=O)c1nc(Cl)c(N)nc1N)[n+]2CC [Example 3.6] | 
1 nM | CCn1c(CNC(=O)c2nc(Cl)c(N)nc2N)[n+](C)c2ccc(O)cc21 [Example 3.9] | 
0.2 nM | CCn1c(CNC(=O)c2nc(Cl)c(N)nc2N)[n+](CC)c2ccc(O)cc21 [Example 3.10] | 
0.3 nM | CCNC(=O)COc1ccc2c(c1)n(CC)c(CNC(=O)c1nc(Cl)c(N)nc1N)[n+]2CC [Example 3.14] | 
11 nM | CCn1c(CNC(=O)c2nc(Cl)c(N)nc2N)[n+](CC)c2ccc(OCCCP(=O)([O-])O)cc21 [Example 4.1] | 
5 nM | CCn1c(CNC(=O)c2nc(Cl)c(N)nc2N)[n+](CC)c2ccc(OCCNCC(=O)[O-])cc21 [Example 5.1] | 
1 nM | CCn1c(CNC(=O)c2nc(Cl)c(N)nc2N)[n+](CC)c2ccc(CN)cc21 [Example 6.1] | 
1 nM | CCn1c(CNC(=O)c2nc(Cl)c(N)nc2N)[n+](CC)c2ccc(OCCN)cc21 [Example 6.2] | 
5 nM | CCn1c(CNC(=O)c2nc(Cl)c(N)nc2N)[n+](CC)c2ccc(CNC(=O)C[N+](C)(C)C)cc21 [Example 8.2] | 
2 nM | CCn1c(CNC(=O)c2nc(Cl)c(N)nc2N)[n+](CC)c2ccc(C[N+](C)(C)C)cc21 [Example 8.3] | 
0.3 nM | CCn1c(CNC(=O)c2nc(Cl)c(N)nc2N)[n+](CC)c2ccc(OCCNC(=N)N)cc21 [Example 10.1] | 
